Where a name gives a salt, the structure may show the parent alone.
Columns and labels:
HCT-15 = assay: Antiproliferative activity against human HCT-15 cells assessed as inhibition of cell proliferation; type: functional, cell-based
HeLa = assay: Antiproliferative activity against human HeLa cells assessed as inhibition of cell proliferation; type: functional, cell-based
DU-145 = assay: Antiproliferative activity against human DU-145 cells assessed as inhibition of cell proliferation; type: functional, cell-based
T47D = assay: Antiproliferative activity against human T47D cells assessed as inhibition of cell proliferation; type: functional, cell-based
[1] = target: DNA topoisomerase 2-alpha (Homo sapiens) (UniProt P11388); assay: Inhibition of topoisomerase 2alpha (unknown origin) assessed as relaxation of supercoiled plasmid pBR322 DNA at 100 uM relative to control
Chain of DNA topoisomerase 2-alpha (Homo sapiens) (P11388 whole entry): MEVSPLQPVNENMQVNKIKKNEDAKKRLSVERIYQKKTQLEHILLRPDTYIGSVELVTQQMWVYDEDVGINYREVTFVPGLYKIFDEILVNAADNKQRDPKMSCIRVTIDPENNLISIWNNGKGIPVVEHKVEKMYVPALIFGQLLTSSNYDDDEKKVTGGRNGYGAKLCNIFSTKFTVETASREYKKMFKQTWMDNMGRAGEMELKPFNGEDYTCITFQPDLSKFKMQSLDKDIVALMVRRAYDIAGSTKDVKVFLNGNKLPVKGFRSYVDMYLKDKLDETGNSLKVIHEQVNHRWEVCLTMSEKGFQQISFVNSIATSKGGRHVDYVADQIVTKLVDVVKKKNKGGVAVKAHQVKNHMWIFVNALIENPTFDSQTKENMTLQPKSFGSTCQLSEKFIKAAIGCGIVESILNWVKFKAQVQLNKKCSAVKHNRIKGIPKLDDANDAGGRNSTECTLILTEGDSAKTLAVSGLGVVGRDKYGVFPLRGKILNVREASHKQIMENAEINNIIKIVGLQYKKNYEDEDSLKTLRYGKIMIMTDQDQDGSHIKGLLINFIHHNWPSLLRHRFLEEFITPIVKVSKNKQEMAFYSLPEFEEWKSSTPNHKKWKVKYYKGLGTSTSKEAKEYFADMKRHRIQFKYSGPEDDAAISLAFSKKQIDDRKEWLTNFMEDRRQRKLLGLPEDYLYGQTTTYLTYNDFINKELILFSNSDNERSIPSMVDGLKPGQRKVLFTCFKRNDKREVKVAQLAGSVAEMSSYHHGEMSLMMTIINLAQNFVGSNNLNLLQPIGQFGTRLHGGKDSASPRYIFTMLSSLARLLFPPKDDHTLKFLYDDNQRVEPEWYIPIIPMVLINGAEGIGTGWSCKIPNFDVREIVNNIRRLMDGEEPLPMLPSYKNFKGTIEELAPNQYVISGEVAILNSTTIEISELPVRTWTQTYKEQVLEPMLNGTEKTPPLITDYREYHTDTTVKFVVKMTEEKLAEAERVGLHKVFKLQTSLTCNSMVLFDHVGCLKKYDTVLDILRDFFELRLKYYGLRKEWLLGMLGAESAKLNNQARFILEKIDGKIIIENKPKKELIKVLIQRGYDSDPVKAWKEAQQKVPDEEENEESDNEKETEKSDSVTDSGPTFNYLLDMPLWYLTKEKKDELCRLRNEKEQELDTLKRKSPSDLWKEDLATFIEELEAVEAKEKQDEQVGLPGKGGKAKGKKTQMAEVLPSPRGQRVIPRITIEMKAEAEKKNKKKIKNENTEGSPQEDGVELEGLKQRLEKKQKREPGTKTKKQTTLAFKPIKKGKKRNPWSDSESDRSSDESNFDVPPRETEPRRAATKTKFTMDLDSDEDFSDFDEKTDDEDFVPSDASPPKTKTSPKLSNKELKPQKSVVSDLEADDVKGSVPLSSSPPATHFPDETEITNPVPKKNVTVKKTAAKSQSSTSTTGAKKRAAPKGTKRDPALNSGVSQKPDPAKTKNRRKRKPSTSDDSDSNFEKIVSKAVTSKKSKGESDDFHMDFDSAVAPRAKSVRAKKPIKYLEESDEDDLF

[2] = target: DNA topoisomerase 2-alpha (Homo sapiens) (UniProt P11388); assay: Inhibition of topoisomerase 2alpha (unknown origin) assessed as relaxation of supercoiled plasmid pBR322 DNA at 20 uM relative to control

Row | Compound | IC50 (HCT-15) [µM] | IC50 (HeLa) [µM] | IC50 (DU-145) [µM] | IC50 (T47D) [µM] | inhibition [1] [%] | inhibition [2] [%]
1 | Oc1ccc(-c2cc(-c3ccccc3C(F)(F)F)cc(-c3ccc(O)cc3)n2)cc1 | > 50 | > 50 | > 50 | > 50 | 0 | 
2 | Oc1ccc(-c2cc(-c3ccccc3F)cc(-c3ccccc3O)n2)cc1 | > 50 | > 50 | > 50 | > 50 | 0.2 | 
3 | Oc1cccc(-c2cc(-c3ccc(C(F)(F)F)cc3)cc(-c3ccccc3O)n2)c1 | > 50 | > 50 | > 50 | > 50 | 0.2 | 
4 | Oc1ccc(-c2cc(-c3ccccc3OC(F)(F)F)cc(-c3ccc(O)cc3)n2)cc1 | 7.76 | 44.6 | 16 | 9.84 | 42.2 | 4.3
5 | Oc1ccccc1-c1cc(-c2cccc(OC(F)(F)F)c2)cc(-c2ccccc2O)n1 | > 50 | > 50 | 7.47 | > 50 | 14.8 | 
6 | Oc1cccc(-c2cc(-c3cccc(F)c3)cc(-c3cccc(O)c3)n2)c1 | 7.86 | 1.4 | 23.8 | 21.3 | 4.9 | 
7 | Oc1ccccc1-c1cc(-c2cccc(C(F)(F)F)c2)cc(-c2ccccc2O)n1 | > 50 | > 50 | > 50 | > 50 | 1.2 | 
8 | Oc1cccc(-c2cc(-c3ccccc3OC(F)(F)F)cc(-c3cccc(O)c3)n2)c1 | 4.22 | 16.7 | 5.42 | 7.95 | 33.4 | 6.7
9 | Oc1ccc(-c2cc(-c3cccc(F)c3)cc(-c3cccc(O)c3)n2)cc1 | 3.07 | 14.2 | 2.7 | 3.51 | 73.9 | 36.1
10 | Oc1ccc(-c2cc(-c3cccc(OC(F)(F)F)c3)cc(-c3cccc(O)c3)n2)cc1 | 1.73 | 14.1 | 5.67 | 5.04 | 43.4 | 7.4
11 | Oc1cccc(-c2cc(-c3cccc(C(F)(F)F)c3)cc(-c3ccccc3O)n2)c1 | 6.46 | 19.5 | 13 | 6.34 | 0.6 | 
12 | Oc1ccc(-c2cc(-c3ccc(OC(F)(F)F)cc3)cc(-c3cccc(O)c3)n2)cc1 | 1.38 | 27.8 | 18.1 | 18.9 | 4.4 | 
13 | Oc1ccccc1-c1cc(-c2ccccc2F)cc(-c2ccccc2O)n1 | > 50 | > 50 | > 50 | > 50 | 10.3 | 
14 | Oc1ccc(-c2cc(-c3cccc(OC(F)(F)F)c3)cc(-c3ccccc3O)n2)cc1 | > 50 | > 50 | > 50 | > 50 | 0 | 
15 | Oc1ccc(-c2cc(-c3ccccc3F)cc(-c3ccc(O)cc3)n2)cc1 | 8.18 | > 50 | 7.78 | 15.1 | 0 | 
16 | Oc1ccccc1-c1cc(-c2ccccc2C(F)(F)F)cc(-c2ccccc2O)n1 | 3.97 | 5.8 | 4.77 | 22.5 | 0 | 
17 | Oc1ccc(-c2cc(-c3cccc(C(F)(F)F)c3)cc(-c3cccc(O)c3)n2)cc1 | 9.54 | 16.2 | 11.1 | 2.63 | 28 | 
18 | Oc1ccc(-c2cc(-c3ccc(OC(F)(F)F)cc3)cc(-c3ccccc3O)n2)cc1 | > 50 | > 50 | > 50 | > 50 | 0 | 
19 | Oc1ccccc1-c1cc(-c2ccc(OC(F)(F)F)cc2)cc(-c2ccccc2O)n1 | > 50 | > 50 | 20.3 | > 50 | 0 | 
20 | Oc1ccc(-c2cc(-c3cccc(F)c3)cc(-c3ccccc3O)n2)cc1 | > 50 | > 50 | > 50 | > 50 | 16.3 | 
21 | Oc1ccc(-c2cc(-c3cccc(F)c3)cc(-c3ccc(O)cc3)n2)cc1 | > 50 | > 50 | 9.29 | > 50 | 0 | 
22 | Oc1ccc(-c2cc(-c3cccc(C(F)(F)F)c3)cc(-c3ccc(O)cc3)n2)cc1 | > 50 | > 50 | > 50 | > 50 | 0 | 
23 | Oc1ccc(-c2cc(-c3ccccc3OC(F)(F)F)cc(-c3ccccc3O)n2)cc1 | 9.82 | 6.01 | 4.19 | 2.05 | 0 | 
24 | Oc1cccc(-c2cc(-c3cccc(F)c3)cc(-c3ccccc3O)n2)c1 | > 50 | > 50 | > 50 | > 50 | 8.8 | 

Row | Compound | IC50 (HCT-15) [µM] | IC50 (HeLa) [µM] | IC50 (DU-145) [µM] | IC50 (T47D) [µM] | inhibition [1] [%] | inhibition [2] [%]
25 | Oc1cccc(-c2cc(-c3cccc(OC(F)(F)F)c3)cc(-c3cccc(O)c3)n2)c1 | > 50 | > 50 | > 50 | 6.74 | 5.7 | 
26 | Oc1cccc(-c2cc(-c3ccccc3F)cc(-c3ccccc3O)n2)c1 | 8.47 | 31.1 | 35.6 | 24.2 | 1 | 
27 | Oc1ccc(-c2cc(-c3cccc(C(F)(F)F)c3)cc(-c3ccccc3O)n2)cc1 | > 50 | > 50 | > 50 | > 50 | 0.1 | 
28 | COc1cccc2c1C(=O)c1c(O)c3c(c(O)c1C2=O)C[C@@](O)(C(=O)CO)C[C@@H]3O[C@H]1C[C@H](N)[C@H](O)[C@H](C)O1 [DOXORUBICIN HYDROCHLORIDE] | 1.28 | 5.04 | 5.85 | 4.59 |  | 
29 | Oc1ccccc1-c1cc(-c2cccc(F)c2)cc(-c2ccccc2O)n1 | > 50 | > 50 | > 50 | > 50 | 0 | 
30 | Oc1ccccc1-c1cc(-c2ccccc2OC(F)(F)F)cc(-c2ccccc2O)n1 | 4.52 | 9.75 | 5.85 | 1.73 | 12.5 | 
31 | Oc1ccccc1-c1cc(-c2ccc(F)cc2)cc(-c2ccccc2O)n1 | > 50 | > 50 | > 50 | > 50 | 7.2 | 
32 | Oc1cccc(-c2cc(-c3ccc(OC(F)(F)F)cc3)cc(-c3ccccc3O)n2)c1 | 9.41 | 20.6 | 21.1 | 7.71 | 0 | 
33 | Oc1cccc(-c2cc(-c3ccccc3C(F)(F)F)cc(-c3cccc(O)c3)n2)c1 | 8.15 | 15.2 | 2.87 | 4.35 | 34 | 
34 | Oc1ccc(-c2cc(-c3ccc(C(F)(F)F)cc3)cc(-c3ccccc3O)n2)cc1 | > 50 | > 50 | > 50 | > 50 | 0.1 | 
35 | Oc1cccc(-c2cc(-c3ccccc3OC(F)(F)F)cc(-c3ccccc3O)n2)c1 | 3.24 | 15.2 | > 50 | 2.68 | 0 | 
36 | Oc1cccc(-c2cc(-c3ccc(F)cc3)cc(-c3ccccc3O)n2)c1 | > 50 | > 50 | > 50 | > 50 | 1.3 | 
37 | Oc1cccc(-c2cc(-c3ccccc3C(F)(F)F)cc(-c3ccccc3O)n2)c1 | 9.01 | 16.8 | 7.25 | 5.68 | 2.6 | 
38 | Oc1ccccc1-c1cc(-c2ccc(C(F)(F)F)cc2)cc(-c2ccccc2O)n1 | > 50 | > 50 | > 50 | > 50 | 0 | 
39 | Oc1ccc(-c2cc(-c3ccccc3C(F)(F)F)cc(-c3ccccc3O)n2)cc1 | 8.99 | 16.5 | 6.69 | 7.18 | 0 | 
40 | Oc1cccc(-c2cc(-c3cccc(C(F)(F)F)c3)cc(-c3cccc(O)c3)n2)c1 | 13.6 | 12.7 | > 50 | 4.97 | 25.2 | 
41 | Oc1cccc(-c2cc(-c3ccc(C(F)(F)F)cc3)cc(-c3cccc(O)c3)n2)c1 | > 50 | > 50 | 33.5 | 2.33 | 24 | 
42 | COc1cc([C@@H]2c3cc4c(cc3[C@@H](O[C@@H]3O[C@@H]5CO[C@@H](C)O[C@H]5[C@H](O)[C@H]3O)[C@H]3COC(=O)[C@H]23)OCO4)cc(OC)c1O [ETOPOSIDE] |  | 7.01 | 7.47 | 5.82 |  | 21.2
43 | Oc1ccc(-c2cc(-c3ccc(C(F)(F)F)cc3)cc(-c3ccc(O)cc3)n2)cc1 | > 50 | > 50 | > 50 | > 50 | 0.2 | 
44 | Oc1cccc(-c2cc(-c3ccc(OC(F)(F)F)cc3)cc(-c3cccc(O)c3)n2)c1 | > 50 | 18.7 | > 50 | 9.82 | 6 | 
45 | Oc1ccc(-c2cc(-c3cccc(OC(F)(F)F)c3)cc(-c3ccc(O)cc3)n2)cc1 | > 50 | > 50 | > 50 | > 50 | 4.4 | 
46 | Oc1cccc(-c2cc(-c3cccc(OC(F)(F)F)c3)cc(-c3ccccc3O)n2)c1 | 2.74 | 14.9 | > 50 | 5.39 | 0 | 
47 | Oc1ccc(-c2cc(-c3ccc(F)cc3)cc(-c3ccccc3O)n2)cc1 | > 50 | > 50 | > 50 | > 50 | 0 | 

From ChEMBL document CHEMBL5131481, “Topoisomerase IIα inhibitory and antiproliferative activity of dihydroxylated 2,6-diphenyl-4-fluorophenylpyridines: Design, synthesis, and structure-activity relationships” (Bioorg Med Chem Lett, 2022)
